Measurements: patent US11066369B2, “N-(pyridin-2-yl)pyridine-sulfonamide derivatives and their use in the treatment of disease” (Novartis AG, priority 2016, dated 2021)
Counter-ions that a name gives are not always drawn.

Columns and labels:
delF508-CFTR = molecular target: T1, delF508-CFTR (Homo sapiens, UniProt P13569, DEL508-508); assay: Measurement of delF508-CFTR functional activity in primary human bronchial epithelial cells (HBECs) using Multi-Transepithelial Clamp Circuit (MTECC-24) assay; format: cell-based; conditions: primary CF HBECs; for MTECC24 CFHBEC- Amax %: test compound added 24h before assay plus potentiator, relative to reference combination (2 μM corrector + 0.5 μM potentiator); for EC50: test compound added 24h before assay, in the presence of potentiator, mean of at least two replicates, read-out: MTECC24 CFHBEC- EC50
T1 construct: functional activity of the CFTR channel (Chloride ion transport) in patient derived primary human bronchial epithelial cells; host or cells: patient-derived primary human bronchial epithelial cells (delF508-CFTR)
Procedure, shortened: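 Patient-derived primary delF508-CFTR HBECs, differentiated at air-liquid interface ~2 weeks, treated basolaterally with compound for 24 h, then apical and basolateral compound in HEPES pH 7.4 assay medium. Equivalent short-circuit current (Ieq) recorded on MTECC-24 with sequential amiloride, forskolin, potentiator and INH-172; normalized to 0.1% DMSO, EC50 from curve fit.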

[1] = molecular target: T2, horseradish peroxidase (HRP) tagged delF508-CFTR (Homo sapiens, UniProt P13569, DEL508-508); assay: Measurement of delF508-CFTR-HRP surface expression in CFBE41o- cells; format: cell-based; conditions: delF508-CFTR-HRP surface expression, CFBE41o- cells; for Emax: read-out: DelF508-CFTR-HRP Amax %; for EC50: read-out: DelF508-CFTR-HRP EC50;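 as to DelF508-CFTR-HRP Amax %: percent efficacy relative to reference corrector lumacaftor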
T2 construct: expressed in transfected cells
Procedure, shortened: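 CFBE41o- bronchial epithelial cells stably expressing delF508-CFTR with HRP in the fourth extracellular loop; expression induced 48h with 500 ng/mL doxycycline, then compounds added (top 10 μM, 10-point 3-fold series, ≤0.5% DMSO) for 24h at 37° C. Surface HRP measured by luminescence with cell-impermeant substrate; EC50 from logistic fit of triplicates, plate-normalized to lowest concentration; efficacy also relative to a reference corrector.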

T2 sequence (P13569 with tags, fused parts or gaps DEL508-508): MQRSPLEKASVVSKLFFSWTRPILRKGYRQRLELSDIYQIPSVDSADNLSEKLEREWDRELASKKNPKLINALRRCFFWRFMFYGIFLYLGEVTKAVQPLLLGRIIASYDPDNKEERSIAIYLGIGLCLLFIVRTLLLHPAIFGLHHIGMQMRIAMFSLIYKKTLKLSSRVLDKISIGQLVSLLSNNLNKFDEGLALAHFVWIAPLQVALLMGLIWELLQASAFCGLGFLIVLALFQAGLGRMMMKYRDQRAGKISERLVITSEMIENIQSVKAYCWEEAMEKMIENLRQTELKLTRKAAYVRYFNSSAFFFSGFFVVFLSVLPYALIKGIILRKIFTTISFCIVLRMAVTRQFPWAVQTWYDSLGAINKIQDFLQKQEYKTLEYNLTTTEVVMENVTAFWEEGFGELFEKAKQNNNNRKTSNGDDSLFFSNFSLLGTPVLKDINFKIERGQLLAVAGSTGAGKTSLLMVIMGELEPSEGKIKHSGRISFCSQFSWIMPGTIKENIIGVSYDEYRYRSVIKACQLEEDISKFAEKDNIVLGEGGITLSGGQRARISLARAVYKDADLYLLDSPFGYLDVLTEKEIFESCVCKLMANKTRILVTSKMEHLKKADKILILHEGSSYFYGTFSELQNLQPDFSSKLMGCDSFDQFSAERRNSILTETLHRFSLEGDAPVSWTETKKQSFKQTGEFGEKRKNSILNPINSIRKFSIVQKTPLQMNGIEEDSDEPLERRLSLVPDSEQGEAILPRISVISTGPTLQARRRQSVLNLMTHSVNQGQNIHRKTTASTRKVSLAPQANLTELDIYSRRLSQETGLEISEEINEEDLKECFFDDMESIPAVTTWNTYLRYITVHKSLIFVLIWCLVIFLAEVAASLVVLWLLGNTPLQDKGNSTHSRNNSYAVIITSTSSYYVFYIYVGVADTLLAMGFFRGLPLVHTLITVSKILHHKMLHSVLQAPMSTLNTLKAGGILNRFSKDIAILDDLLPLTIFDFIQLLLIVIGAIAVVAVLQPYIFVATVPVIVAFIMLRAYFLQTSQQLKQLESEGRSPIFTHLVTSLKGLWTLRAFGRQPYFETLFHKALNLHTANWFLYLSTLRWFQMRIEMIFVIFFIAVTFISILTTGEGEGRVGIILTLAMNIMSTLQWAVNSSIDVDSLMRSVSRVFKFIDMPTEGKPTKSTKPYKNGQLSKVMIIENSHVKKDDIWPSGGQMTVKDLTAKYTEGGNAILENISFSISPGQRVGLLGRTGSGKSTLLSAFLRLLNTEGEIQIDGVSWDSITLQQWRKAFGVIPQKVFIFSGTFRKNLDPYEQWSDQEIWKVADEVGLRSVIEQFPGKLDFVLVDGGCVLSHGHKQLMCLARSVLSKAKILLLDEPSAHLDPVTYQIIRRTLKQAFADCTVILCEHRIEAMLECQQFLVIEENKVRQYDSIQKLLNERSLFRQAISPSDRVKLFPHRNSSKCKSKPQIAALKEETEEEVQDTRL
T1 sequence (P13569 with tags, fused parts or gaps DEL508-508): as above

MTECC24 CFHBEC- Amax % (delF508-CFTR) [%]	EC50 (delF508-CFTR) [nM]	Emax [1] [%]	EC50 [1] [nM]	SMILES
67.6	85.5	317	3710	Cc1ccccc1-c1nc(NS(=O)(=O)c2cccc(N3CCN[C@H](C)C3)n2)ccc1C(F)(F)F [Example 167, (R)-6-(3-methylpiperazin-1-yl)-N-(6-(o-tolyl)-5-(trifluoromethyl)pyridin-2-yl)pyridine-2-sulfonamide Hydrochloride]
72.4	39.9	367	2260	Cc1ccc(F)cc1-c1nc(NS(=O)(=O)c2ccnc(N)c2)ccc1C(F)(F)F [Example 42, 2-amino-N-(6-(5-fluoro-2-methylphenyl)-5-(trifluoromethyl)pyridin-2-yl)pyridine-4-sulfonamide]
77.9	0.533	–	2000	Cc1c(F)cccc1-c1nc(NS(=O)(=O)c2cccc(N3CCCC(C)(C(=O)O)C3)n2)ccc1C(F)(F)F (stereo not shown) [Example 362, 1-(6-{[6-(3-fluoro-2-methylphenyl)-5-(trifluoromethyl)pyridin-2-yl]sulfamoyl}pyridin-2-yl)-3-methylpiperidine-3-carboxylic Acid]
57.0	191	493	3090	Cc1cccc(C)c1-c1nc(NS(=O)(=O)c2cccc(N3CCC(C(=O)O)CC3)n2)ccc1Cl [Example 247, 1-(6-(N-(5-chloro-6-(2,6-dimethylphenyl)pyridin-2-yl)sulfamoyl)pyridin-2-yl)piperidine-4-carboxylic Acid]
76.6	93.5	230	4190	COc1ccc(Cl)c(-c2nc(NS(=O)(=O)c3cccc(N4CCNCC4)n3)ccc2Cl)c1 [Example 158, N-(5-chloro-6-(2-chloro-5-methoxyphenyl)pyridin-2-yl)-6-(piperazin-1-yl)pyridine-2-sulfonamide hydrochloride]
85.3	5.2	586	1530	Cc1ccccc1-c1nc(NS(=O)(=O)c2cccc(N3CC(O)C3)n2)ccc1C(F)(F)F [Example 233, 6-(3-hydroxyazetidin-1-yl)-N-(6-(o-tolyl)-5-(trifluoromethyl)pyridin-2-yl)pyridine-2-sulfonamide]
50.7	96	137	2280	Nc1cccc(S(=O)(=O)Nc2ccc(Cl)c(-c3c(F)cccc3F)n2)n1 [Example 80, 6-amino-N-(5-chloro-6-(2,6-difluorophenyl)pyridin-2-yl)pyridine-2-sulfonamide]
63.5	7	552	1320	CC1(O)CN(c2cccc(S(=O)(=O)Nc3ccc(C(F)(F)F)c(-c4ccccc4Cl)n3)n2)C1 [Example 221, N-(6-(2-chlorophenyl)-5-(trifluoromethyl)pyridin-2-yl)-6-(3-hydroxy-3-methylazetidin-1-yl)pyridine-2-sulfonamide]
57.9	4.02	869	2320	Cc1c(F)cccc1-c1nc(NS(=O)(=O)c2cccc(N3CCC[C@@H](C(=O)O)C3)n2)ccc1C(F)(F)F [Example 358, (3R)-1-(6-{[6-(3-fluoro-2-methylphenyl)-5-(trifluoromethyl)pyridin-2-yl]sulfamoyl}pyridin-2-yl)piperidine-3-carboxylic Acid]
63.9	4.9	499	1380	O=S(=O)(Nc1ccc(C(F)(F)F)c(-c2ccccc2C(F)(F)F)n1)c1cccc(N2CC(O)C2)n1 [Example 224, 6-(3-hydroxyazetidin-1-yl)-N-(5-(trifluoromethyl)-6-(2-(trifluoromethyl)phenyl)pyridin-2-yl)pyridine-2-sulfonamide]
52.6	222	310	2610	Cc1ccc(F)cc1-c1nc(NS(=O)(=O)c2ccnc(N3CC(O)C3)c2)ccc1Cl [Example 322, N-(5-chloro-6-(5-fluoro-2-methylphenyl)pyridin-2-yl)-2-(3-hydroxyazetidin-1-yl)pyridine-4-sulfonamide]
87.0	5.8	592	1530	Cc1cccc(C)c1-c1cc(Cl)cc(NS(=O)(=O)c2cccc(N)n2)n1 [Example 10, 6-amino-N-(4-chloro-6-(2,6-dimethylphenyl)pyridin-2-yl)pyridine-2-sulfonamide]
63.3	174	306	2200	Cc1ccccc1-c1nc(NS(=O)(=O)c2cccc(N3CCNC[C@@H]3C)n2)ccc1C(F)(F)F [Example 170, (S)-6-(2-methylpiperazin-1-yl)-N-(6-(o-tolyl)-5-(trifluoromethyl)pyridin-2-yl)pyridine-2-sulfonamide Hydrochloride]
67.1	25	195	3480	Cc1c(F)cccc1-c1nc(NS(=O)(=O)c2ccnc(N3CCOC[C@H]3C)c2)ccc1Cl [Example 319, (R)—N-(5-chloro-6-(3-fluoro-2-methylphenyl)pyridin-2-yl)-2-(3-methylmorpholino)pyridine-4-sulfonamide]
84.0	0.8	–	1590	Cc1ccccc1-c1nc(NS(=O)(=O)c2cccc(N[C@H]3C[C@@H](O)C3)n2)ccc1C(F)(F)F [Example 283, N-[6-(2-methylphenyl)-5-(trifluoromethyl)pyridin-2-yl]-6-{[(1s,3s)-3-hydroxycyclobutyl]amino}pyridine-2-sulfonamide]
74.0	103	251	2620	Nc1cc(S(=O)(=O)Nc2ccc(Cl)c(-c3ccccc3C(F)(F)F)n2)ccn1 [Example 61, 2-amino-N-(5-chloro-6-(2-(trifluoromethyl)phenyl)pyridin-2-yl)pyridine-4-sulfonamide]
78.0	19.4	503	2270	Cc1ccccc1-c1nc(NS(=O)(=O)c2cccc(N3CC(C)(O)C3)n2)ccc1Br [Example 207, N-(5-bromo-6-(o-tolyl)pyridin-2-yl)-6-(3-hydroxy-3-methylazetidin-1-yl)pyridine-2-sulfonamide]
63.9	28.3	301	2580	Nc1cccc(S(=O)(=O)Nc2ccc(Cl)c(-c3ccc(F)cc3Cl)n2)n1 [Example 56, 6-amino-N-(5-chloro-6-(2-chloro-4-fluorophenyl)pyridin-2-yl)pyridine-2-sulfonamide]
68.7	26.1	468	2030	Cc1ccccc1-c1nc(NS(=O)(=O)c2cccc(O[C@@H]3COC[C@@]3(C)O)n2)ccc1C(F)(F)F (single isomer, unassigned) [Example 295]
57.5	47.4	546	2110	Cc1c(F)cccc1-c1nc(NS(=O)(=O)c2cccc(N3CCC[C@H](C(=O)O)C3)n2)ccc1C(F)(F)F [Example 360, (3S)-1-(6-{[6-(3-fluoro-2-methylphenyl)-5-(trifluoromethyl)pyridin-2-yl]sulfamoyl}pyridin-2-yl)piperidine-3-carboxylic Acid]
72.3	31.9	349	1700	Cc1c(F)cccc1-c1nc(NS(=O)(=O)c2cccc(N3CC(O)C3)n2)ccc1Cl [Example 232, N-(5-chloro-6-(3-fluoro-2-methylphenyl)pyridin-2-yl)-6-(3-hydroxyazetidin-1-yl)pyridine-2-sulfonamide]
35.7	39.9	91.5	3860	Cc1ccc(OC(F)(F)F)cc1-c1nc(NS(=O)(=O)c2cccc(N)n2)ccc1Cl [Example 89, 6-amino-N-(5-chloro-6-(2-methyl-5-(trifluoromethoxy)phenyl)pyridin-2-yl)pyridine-2-sulfonamide]
71.8	20.6	465	1160	Cc1cccc(C)c1-c1nc(NS(=O)(=O)c2cccc(N3CC(O)C3)n2)ccc1Cl [Example 231, N-(5-chloro-6-(2,6-dimethylphenyl)pyridin-2-yl)-6-(3-hydroxyazetidin-1-yl)pyridine-2-sulfonamide]
64.4	97.3	180	3510	O=S(=O)(Nc1ccc(C(F)(F)F)c(-c2ccccc2Cl)n1)c1cccc(N2CCNCC2)n1 [Example 150, N-(6-(2-chlorophenyl)-5-(trifluoromethyl)pyridin-2-yl)-6-(piperazin-1-yl)pyridine-2-sulfonamide hydrochloride]
